Assay results taken from patent US20250346600A1, “TRICYCLIC DERIVATIVES AND RELATED USES” (MOMA Therapeutics, Inc., priority 2023, published 2025).

Key:
[1] = test system: HCT116 cells; test: HCT116 (MSI) 7 day viability, CellTiter Glo; type: cell-based; conditions: Homo sapiens, HCT-116, 168 h, 7 days, read-out: HCT116 (MSI) Viability 7 Day Abs AC50
In short: (§1)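 For each line, compound dilution series (3-fold, 10 points) met a defined seeding density—HCT116 50, HT29 500 cells/well—followed by 7 days at 37 °C. Luminescent ATP signal, background-corrected with no-cell wells, gave four-parameter logistic IC50s.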

[2] = test system: HT29 cells; test: HT29 (MSS) 7 day viability, CellTiter Glo; type: cell-based; conditions: Homo sapiens, HT-29, 168 h, 7 days, read-out: HT29 (MSS) Viability 7 Day CTGAbs AC50
In short: as §1

[3] = target: T1, Full length WRN protein (aa 2-1432) (Homo sapiens (Human), UniProt Q14191); test: WRN ATPase ADP-Glo biochemical assay, Assay Format B (100 μM ATP); conditions: 0.25 nM WRN, 100 nM C6.18 ssDNA, 60 min preincubation, read-out: ATPase ADPGlo AC50 (uM)- Assay Format B
[4] = target: T1, Full length WRN protein (aa 2-1432); test: WRN ATPase ADP-Glo biochemical assay, Assay Format A (10 μM ATP); conditions: 0.25 nM WRN, 100 nM C6.18 ssDNA, 30 min preincubation, read-out: ATPase ADPGlo AC50 (uM)- Assay Format A
In short: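 ADP-Glo luminescence measured hydrolysis of ATP by purified, baculovirus-expressed N-terminally tagged full-length WRN. Enzyme (0.5 nM) was preincubated 30 min with compound, then 200 nM ssDNA C6.18 plus 20 μM ATP were added (pre-mix levels) for 30 min at RT. IC50s come from four-parameter fits, geometric mean of at least two trials.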

T1 sequence (Q14191 2-1432): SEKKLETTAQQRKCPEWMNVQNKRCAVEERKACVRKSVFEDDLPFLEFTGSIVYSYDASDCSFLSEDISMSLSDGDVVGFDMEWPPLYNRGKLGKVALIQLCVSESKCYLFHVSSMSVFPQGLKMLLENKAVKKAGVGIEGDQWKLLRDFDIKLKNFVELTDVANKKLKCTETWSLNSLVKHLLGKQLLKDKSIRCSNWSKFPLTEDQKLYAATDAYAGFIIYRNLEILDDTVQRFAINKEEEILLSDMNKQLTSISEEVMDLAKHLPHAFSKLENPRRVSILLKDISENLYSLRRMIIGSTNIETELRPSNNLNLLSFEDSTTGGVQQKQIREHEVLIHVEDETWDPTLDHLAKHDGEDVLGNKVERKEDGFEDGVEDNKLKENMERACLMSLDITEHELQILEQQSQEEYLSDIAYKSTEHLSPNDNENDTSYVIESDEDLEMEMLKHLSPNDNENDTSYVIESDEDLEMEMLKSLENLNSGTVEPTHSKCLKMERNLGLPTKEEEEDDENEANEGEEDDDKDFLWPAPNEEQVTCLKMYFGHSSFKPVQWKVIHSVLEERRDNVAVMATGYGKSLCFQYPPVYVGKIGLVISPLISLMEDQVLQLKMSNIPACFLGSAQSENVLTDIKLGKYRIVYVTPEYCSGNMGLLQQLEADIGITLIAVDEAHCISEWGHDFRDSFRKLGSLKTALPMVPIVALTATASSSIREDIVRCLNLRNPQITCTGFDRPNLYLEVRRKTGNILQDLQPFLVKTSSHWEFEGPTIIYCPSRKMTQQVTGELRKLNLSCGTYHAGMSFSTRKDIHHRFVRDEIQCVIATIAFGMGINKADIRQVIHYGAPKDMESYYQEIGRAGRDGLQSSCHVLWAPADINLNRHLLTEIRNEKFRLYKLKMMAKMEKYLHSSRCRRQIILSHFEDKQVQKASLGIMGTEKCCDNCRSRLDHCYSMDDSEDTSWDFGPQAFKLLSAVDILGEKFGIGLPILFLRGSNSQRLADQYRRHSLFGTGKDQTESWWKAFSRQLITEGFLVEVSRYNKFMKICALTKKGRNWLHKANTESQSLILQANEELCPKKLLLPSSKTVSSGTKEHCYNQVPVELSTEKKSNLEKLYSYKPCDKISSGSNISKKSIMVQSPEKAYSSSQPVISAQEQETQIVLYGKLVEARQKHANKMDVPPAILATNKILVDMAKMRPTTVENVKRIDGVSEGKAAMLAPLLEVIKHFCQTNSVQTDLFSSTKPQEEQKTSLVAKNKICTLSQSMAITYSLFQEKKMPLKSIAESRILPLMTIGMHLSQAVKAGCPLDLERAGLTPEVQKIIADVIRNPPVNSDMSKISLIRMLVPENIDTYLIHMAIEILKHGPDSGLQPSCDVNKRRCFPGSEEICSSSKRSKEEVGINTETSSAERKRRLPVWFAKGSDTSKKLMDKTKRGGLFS

Row | SMILES | AC50 [3] | AC50 [4] | AC50 [1] | AC50 [2]
1 | Nc1cc(C(F)(F)F)ncc1C(=O)N1CCc2c3c(nn2-c2ccc(C4CCC4)cc2)CCN(C(=O)/C=C\Cl)CC31 (stereo not shown) [Compound 243, 1-(5-(4-amino-6-(trifluoromethyl)nicotinoyl)-2-(4-cyclobutylphenyl)-2,3,4,5,5a,6,8,9-octahydro-7H-1,2,5,7-tetraazabenzo[cd]azulen-7-yl)-3-chloroprop-2-en-1-one] | 0.015 to 0.055 µM | 0.0015 to 0.005 µM | 1 to 100 nM | 1000 to 3000 nM
2 | C=CC(=O)N1CCc2nn(-c3ccc(C4CC4)cc3)c3c2C(C1)N(C(=O)c1cnc(C(F)(F)F)c(C#N)c1)CC3 (stereo not shown) [Compound 112, 5-(7-acryloyl-2-(4-cyclopropylphenyl)-3,4,5,5a,6,7,8,9-octahydro-2H-1,2,5,7-tetraazabenzo[cd]azulene-5-carbonyl)-2-(trifluoromethyl)nicotino nitrile] | > 0.055 µM | 0.005 to 0.015 µM | 100 to 250 nM | > 3000 nM
3 | C=CC(=O)N1CCc2nn(-c3ccc(C4CCC4)cc3Cl)c3c2C(C1)N(C(=O)c1cnc(C(F)(F)F)cc1N)CC3 (stereo not shown) [Compound 241, 1-(5-(4-amino-6-(trifluoromethyl)nicotinoyl)-2-(2-chloro-4-cyclobutylphenyl)-2,3,4,5,5a,6,8,9-octahydro-7H-1,2,5,7-tetraazabenzo[cd]azulen-7-yl)prop-2-en-1-one] | 0.005 to 0.015 µM | < 0.0015 µM | 1 to 100 nM | > 3000 nM
4 | C=CC(=O)N1CCc2nn(Cc3ccccc3)c3c2C(C1)N(C(=O)c1cnc(C(F)(F)F)cc1N)CC3 (stereo not shown) [Compound 201, 1-(5-(4-amino-6-(trifluoromethyl)nicotinoyl)-2-benzyl-2,3,4,5,5a,6,8,9-octahydro-7H-1,2,5,7-tetraazabenzo[cd]azulen-7-yl)prop-2-en-1-one] | < 0.0015 µM | > 0.055 µM | > 1000 nM | > 3000 nM
5 | C=CC(=O)N1CC(C)c2nn(-c3ccc(C4CC4)cc3O)c3c2C(C1)N(C(=O)c1cnc(C(F)(F)F)cc1N)CC3 (stereo not shown) [Compound 189, 1-(5-(4-amino-6-(trifluoromethyl)nicotinoyl)-2-(4-cyclopropyl-2-hydroxyphenyl)-9-methyl-2,3,4,5,5a,6,8,9-octahydro-7H-1,2,5,7-tetraazabenzo[cd]azulen-7-yl)prop-2-en-1-one] | 0.005 to 0.015 µM | < 0.0015 µM | 1 to 100 nM | > 3000 nM
6 | C=CC(=O)N1CCc2nn(-c3ccc(C45CC(C4)C5)c(F)c3O)c3c2C(C1)N(C(=O)c1cnc(C(F)(F)F)c(O)c1)CC3 (stereo not shown) [Compound 101, 1-(2-(4-(bicyclo[1.1.1]pentan-1-yl)-3-fluoro-2-hydroxyphenyl)-5-(5-hydroxy-6-(trifluoromethyl)nicotinoyl)-2,3,4,5,5a,6,8,9-octahydro-7H-1,2,5,7-tetraazabenzo[cd]azulen-7-yl)prop-2-en-1-one] | 0.015 to 0.055 µM | 0.0015 to 0.005 µM | 100 to 250 nM | > 3000 nM
7 | C=CC(=O)N1CC(OC2CC(C#N)C2)c2nn(-c3ccc(C4CCC4)cc3)c3c2C(C1)N(C(=O)c1cnc(C(F)(F)F)cc1N)CC3 (stereo not shown) [Compound 198, 3-((7-acryloyl-5-(4-amino-6-(trifluoromethyl)nicotinoyl)-2-(4-cyclobutylphenyl)-3,4,5,5a,6,7,8,9-octahydro-2H-1,2,5,7-tetraazabenzo[cd]azulen-9-yl)oxy)cyclobutane-1-carbonitrile] | 0.005 to 0.015 µM | < 0.0015 µM | 1 to 100 nM | > 3000 nM
8 | C=CC(=O)N1CCc2nc(-c3ccc(C4CCC4)cc3)n3c2C(C1)N(C(=O)c1cnc(C(F)(F)F)c(O)c1)CC3 (stereo not shown) [Compound 86, 1-(2-(4-cyclobutylphenyl)-5-(5-hydroxy-6-(trifluoromethyl)nicotinoyl)-4,5,5a,6,8,9-hexahydro-1,2a,5,7-tetraazabenzo[cd]azulen-7(3H)-yl)prop-2-en-1-one] | 0.015 to 0.055 µM | < 0.0015 µM | 250 to 500 nM | > 3000 nM
9 | COC/C=C/C(=O)N1CCc2nn(-c3ccc(C4CCC4)cc3O)c3c2C(C1)N(C(=O)c1cnc(C(F)(F)F)cc1N)CC3 (stereo not shown) [Compound 239, 1-(5-(4-amino-6-(trifluoromethyl)nicotinoyl)-2-(4-cyclobutyl-2-hydroxyphenyl)-2,3,4,5,5a,6,8,9-octahydro-7H-1,2,5,7-tetraazabenzo[cd]azulen-7-yl)-4-methoxybut-2-en-1-one] | > 0.055 µM | 0.005 to 0.015 µM | 100 to 250 nM | > 3000 nM

Second part, led by results:

Row | AC50 [3] | AC50 [4] | SMILES | AC50 [1] | AC50 [2]
10 | 0.005 to 0.015 µM | < 0.0015 µM | C=CC(=O)N1CCc2nn(-c3ccc(C4CCC4)cc3O)c3c2C(C1)N(C(=O)c1ccc(C(F)(F)F)nc1)CC3 (stereo not shown) [Compound 96, 1-(2-(4-cyclobutyl-2-hydroxyphenyl)-5-(6-(trifluoromethyl)nicotinoyl)-2,3,4,5,5a,6,8,9-octahydro-7H-1,2,5,7-tetraazabenzo[cd]azulen-7-yl)prop-2-en-1-one] | 1 to 100 nM | > 3000 nM
11 | 0.0015 to 0.005 µM | < 0.0015 µM | C=CC(=O)N1CCc2nn(-c3ccc(C4CCC4)cc3O)c3c2C(C1)N(C(=O)c1cnc(C(F)(F)F)c(F)c1N)CC3 (stereo not shown) [Compound 134, 1-(5-(4-amino-5-fluoro-6-(trifluoromethyl)nicotinoyl)-2-(4-cyclobutyl-2-hydroxyphenyl)-2,3,4,5,5a,6,8,9-octahydro-7H-1,2,5,7-tetraazabenzo[cd]azulen-7-yl)prop-2-en-1-one] | 1 to 100 nM | > 3000 nM
12 | 0.0015 to 0.005 µM | < 0.0015 µM | C=CC(=O)N1CCc2nn(-c3ccc(C4CCC4)cc3O)c3c2C(C1)N(C(=O)c1cnc(Cl)cc1N)CC3 (stereo not shown) [Compound 144, 1-(5-(4-amino-6-chloronicotinoyl)-2-(4-cyclobutyl-2-hydroxyphenyl)-2,3,4,5,5a,6,8,9-octahydro-7H-1,2,5,7-tetraazabenzo[cd]azulen-7-yl)prop-2-en-1-one] | 1 to 100 nM | > 3000 nM
13 | > 0.055 µM | 0.005 to 0.015 µM | C=CC(=O)N1CCc2nn(-c3ccc(C4CC4)cc3)c3c2C(C1)N(C(=O)c1ccc(Br)nc1C)CC3 (stereo not shown) [Compound 114, 1-(5-(6-bromo-2-methylnicotinoyl)-2-(4-cyclopropylphenyl)-2,3,4,5,5a,6,8,9-octahydro-7H-1,2,5,7-tetraazabenzo[cd]azulen-7-yl)prop-2-en-1-one] | 250 to 500 nM | > 3000 nM
14 | 0.0015 to 0.005 µM | < 0.0015 µM | C=CC(=O)N1CCc2nn(-c3ccc(C4CCC4)cc3O)c3c2C(C1)N(C(=O)c1cc(O)c2scnc2c1)CC3 (stereo not shown) [Compound 153, 1-(2-(4-cyclobutyl-2-hydroxyphenyl)-5-(7-hydroxybenzo[d]thiazole-5-carbonyl)-2,3,4,5,5a,6,8,9-octahydro-7H-1,2,5,7-tetraazabenzo[cd]azulen-7-yl)prop-2-en-1-one] | 1 to 100 nM | > 3000 nM
15 | 0.005 to 0.015 µM | < 0.0015 µM | C=CC(=O)N1CCc2nn(-c3ccc(C4CC4)cc3O)c3c2C(C1)N(C(=O)c1ccc(Br)c2[nH]c(C(F)F)nc12)CC3 (stereo not shown) [Compound 143, 1-(5-(7-bromo-2-(difluoromethyl)-1H-benzo[d]imidazole-4-carbonyl)-2-(4-cyclopropyl-2-hydroxyphenyl)-2,3,4,5,5a,6,8,9-octahydro-7H-1,2,5,7-tetraazabenzo[cd]azulen-7-yl)prop-2-en-1-one] | 1 to 100 nM | > 3000 nM
16 | 0.005 to 0.015 µM | < 0.0015 µM | C=CC(=O)N1CCc2nn(-c3ccc(C(C)C)cc3)c3c2C(C1)N(C(=O)c1ccc(Br)c2[nH]cnc12)CC3 (stereo not shown) [Compound 7, 1-(5-(7-bromo-1H-benzo[d]imidazole-4-carbonyl)-2-(4-isopropylphenyl)-2,3,4,5,5a,6,8,9-octahydro-7H-1,2,5,7-tetraazabenzo[cd]azulen-7-yl)prop-2-en-1-one] | 1 to 100 nM | > 3000 nM
17 | 0.005 to 0.015 µM | 0.0015 to 0.005 µM | C=CC(=O)N1CCc2nn(-c3ccc(C4CC4)cc3O)c3c2C(C1)N(C(=O)c1cnc(OC(F)(F)F)c(F)c1N)CC3 (stereo not shown) [Compound 247, 1-(5-(4-amino-5-fluoro-6-(trifluoromethoxy)nicotinoyl)-2-(4-cyclopropyl-2-hydroxyphenyl)-2,3,4,5,5a,6,8,9-octahydro-7H-1,2,5,7-tetraazabenzo[cd]azulen-7-yl)prop-2-en-1-one] | 1 to 100 nM | > 3000 nM
18 | 0.0015 to 0.005 µM | < 0.0015 µM | C=CC(=O)N1CCc2nn(-c3ccc(C4CCC4)cc3C)c3c2C(C1)N(C(=O)c1cnc(C(F)(F)F)cc1N)CC3 (stereo not shown) [Compound 240, 1-(5-(4-amino-6-(trifluoromethyl)nicotinoyl)-2-(4-cyclobutyl-2-methylphenyl)-2,3,4,5,5a,6,8,9-octahydro-7H-1,2,5,7-tetraazabenzo[cd]azulen-7-yl)prop-2-en-1-one] | 1 to 100 nM | > 3000 nM
19 | > 0.055 µM | 0.015 to 0.055 µM | C=CC(=O)N1CCc2nn(-c3ccc(C45CC(C4)C5)nc3)c3c2C(C1)N(C(=O)c1ccc(Br)c2[nH]cnc12)CC3 (stereo not shown) [Compound 29, 1-(2-(6-(bicyclo[1.1.1]pentan-1-yl)pyridin-3-yl)-5-(7-bromo-1H-benzo[d]imidazole-4-carbonyl)-2,3,4,5,5a,6,8,9-octahydro-7H-1,2,5,7-tetraazabenzo[cd]azulen-7-yl)prop-2-en-1-one] | 100 to 250 nM | > 3000 nM
